Measurements: patent publication US3948898A, “1,3-Dioxo-2-aminoalkyl-4,4-dimethyl-isoquinolines and salts thereof” (Boehringer Ingelheim GmbH, priority 1973, dated 1976)
Where a name gives a salt, the structure may show the parent alone.

Key:
[1] = hypotensive activity in anesthetized mongrel dogs (i.v.); format: in vivo
Protocol: The test compounds were injected intravenously into the vena saphena in aqueous solution. The arterial bloodpressure was measured before and after administration in the arteria femoralis by means of a […]-pressure transducer and registered on a Grass-polygraph.

[2] = acute toxicity in mice after oral application (LD50); details: mouse, in vivo, p.o., observation time 14 days
Protocol: The acute toxicity of the compounds was tested in mice (observation time: 14 days) after oral application. The LD50 was calculated from the percentage of the animals which died within the observation time after application of varying doses [see J. Pharmacol. exper. Therap.

SMILES | Decrease of bloodpressure diast. ([1]; 0.5 mg/kg i.v.) | Decrease of bloodpressure syst. ([1]; 0.5 mg/kg i.v.) | Duration of activity ([1]; 0.5 mg/kg i.v.) | Decrease of bloodpressure diast. ([1]; 1.0 mg/kg i.v.) | Decrease of bloodpressure syst. ([1]; 1.0 mg/kg i.v.) | Duration of activity ([1]; 1.0 mg/kg i.v.) | LD50 at 336 h [2] | Decrease of bloodpressure diast. ([1]; 0.05 mg/kg i.v.) | Decrease of bloodpressure syst. ([1]; 0.05 mg/kg i.v.) | Duration of activity ([1]; 0.05 mg/kg i.v.) | Decrease of bloodpressure diast. ([1]; 0.1 mg/kg i.v.) | Decrease of bloodpressure syst. ([1]; 0.1 mg/kg i.v.) | Duration of activity ([1]; 0.1 mg/kg i.v.)
COc1ccc2c(c1)C(=O)N(CCCNCCc1ccc(OC)c(OC)c1)C(=O)C2(C)C [B, 1-[4,4-dimethyl-7-methoxy-1,3-dioxo-(2H,4H)-isoquinolin-2-yl]-3-[2-(3,4-dimethoxy-phenyl)-ethylamine]propane hydrochloride] | -36 mm Hg | -32 mm Hg | 35 min | -40 mm Hg | -36 mm Hg | 40 min | 775 mg/kg | – | – | – | – | – | –
COc1ccccc1N1CCN(CCN2C(=O)c3ccccc3C(C)(C)C2=O)CC1.Cl.Cl [A, 1-[4,4-dimethyl-1,3-dioxo-(2H,4H)-isoquinolin-2-yl]-2-[4-(2-methoxy-phenyl)-piperazin-1-yl]-ethane dihydrochloride] | – | – | – | – | – | – | 850 mg/kg | -31 mm Hg | -27 mm Hg | 53 min | -34 mm Hg | -33 mm Hg | 47 min
